{
  "source": "patent US8796333B2",
  "about": "“Method of using β-hydroxy-β-methylbutyrate to treat a condition” (Abbott Laboratories, priority 2005, dated 2014)",
  "key": {"asthma": {"test_system": "asthma", "assay": "Working examples: individuals having or at risk for asthma given HMB", "assay_type": "in vivo, human", "protocol": "A person who normally has four exacerbations of asthma per year is administered 1-10 g of HMB (Nutritional Liquid #5) four times a week for a year.\nA person suffering from moderate persistent asthma is tested to determine the individual's FEV1 percentage value and the value is recorded.\nA person suffering from mild intermittent asthma is tested to determine the individual's FEV1 percentage value and a value of 83% is recorded. The individual is then administered 1.5-6 g of HMB 4 times (Nutritional Liquid #5) a week for a year. One year later the individual's FEV1 remains above 80% and symptoms of asthma are reduced.\nThe individual is administered 250 mg of HMB (Nutritional Liquid #4) once a day for 6 months."}, "seasonal allergies": {"test_system": "seasonal allergies", "assay": "Working examples: individuals having or at risk for seasonal allergies given HMB", "assay_type": "in vivo, human", "protocol": "An individual who suffers from seasonal allergies in the spring is given 0.25-1 g of HMB (Nutritional Liquid #5) four times a week for a year. The symptoms of seasonal allergies are reduced the following spring.\nThe individual is administered 0.1-1.5 g of HMB (Nutritional Liquid #3) once a day for 6 months."}, "[1]": {"test_system": "peripheral blood mononuclear cells (PBMC) stimulated with CD3/CD28", "assay": "Cytokine production by PBMCs stimulated with CD3/CD28 for 24 hours, Bio-plex Cytokine Assay", "assay_type": "cell-based, human", "protocol": "To induce production of cytokines, PBMCs, isolated from peripheral blood of 10 normal healthy donors, are stimulated for 24 hours with the T cell stimulant CD3/CD28. Cytokine production is analyzed using a Bio-plex Cytokine Assay. The Bio-Plex technology is based on antibody-antigen interactions, wherein fluorescently labeled beads conjugated with antibody directed against the cytokine of interest bind target cytokine to the bead. This bead-cytokine complex is then exposed to a biotinylated detection antibody and a streptavidin-PE (phycoerythrin) reporter molecule. The signal from the reporter molecule is directly proportional to the amount of cytokine present, thus enabling cytokine quantification.\nEach of the T cell-derived cytokines quantified in the experiment is described in the following table:\nA t-test (paired sample, two-tailed) is performed in which a broad range of type 1 and type 2 cytokines are evaluated from cultures with HMB compared to cultures and without HMB."}, "kidney tumors": {"test_system": "kidney tumors", "assay": "Working example: individual treated for kidney tumors given HMB", "assay_type": "in vivo, human", "settings": "person; 750 mg HMB (capsules) four times a week for a year", "protocol": "A person diagnosed with and has been treated for kidney tumors is administered 750 mg of HMB (capsules) four times a week for a year."}, "[2]": {"test_system": "respiratory tract infections", "assay": "Working examples: respiratory infections in individuals given HMB", "assay_type": "in vivo, human", "settings": "person recovered from pneumonia; 250 mg HMB (Nutritional Liquid #1) once a day for 6 months", "protocol": "A person, after conventional treatment for and recovery from pneumonia, is administered 250 mg of HMB (Nutritional Liquid #1) once a day for 6 months.\nA person is training for the New York Marathon. During their training period and for 3 months following the event they take two servings per day of Nutritional formula #6 (containing 1 gram HMB per serving)."}, "ovarian cancer": {"test_system": "ovarian cancer", "assay": "Working example: individual after chemotherapy for ovarian cancer given HMB", "assay_type": "in vivo, human", "settings": "person after chemotherapy; 2-10 g HMB (Nutritional Liquid #1) four times a week for a year", "protocol": "A person who has undergone chemotherapy for ovarian cancer is administered 2-10 g of HMB (Nutritional Liquid #1) four times a week for a year."}, "stress": {"test_system": "stress", "assay": "Working examples: individuals with psychological, surgical or pre-surgical stress given HMB", "assay_type": "in vivo, human", "settings": "person", "protocol": "A person suffering from severe symptoms of psychological stress as a result of a burn injury is administered 500 mg (Nutritional Liquid #1) of HMB 4 times a week for a year. One year later the symptoms of psychological stress are reduced.\nA person suffering from symptoms of surgical stress is administered 200 mg of HMB (Nutritional Liquid #2) 7 times a week for 2 months. Two months later the symptoms of surgical stress are reduced.\nA person suffering from symptoms of pre-surgical stress is administered 200 mg of HMB (capsules) once a day for 3 weeks preceding the individual's scheduled surgery. At the end of the 3 weeks, symptoms of pre-surgical stress are reduced."}, "melanoma": {"test_system": "melanoma", "assay": "Working example: individual treated for melanoma given HMB", "assay_type": "in vivo, human", "settings": "person; 1 g HMB (Nutritional Liquid #1) 4 times a week for a year"}, "[3]": {"settings": "person, moderate persistent asthma, 5-10 g HMB (Nutritional Liquid #5) 4 times a week for a year"}, "[4]": {"settings": "1 mM, 5 mM and 10 mM HMB, FIG. 3"}, "[5]": {"settings": "5 mM and 10 mM HMB, PBMC, CD3/CD28, 24 hours, vs no HMB, FIG. 1"}, "[6]": {"settings": "PBMC, CD3/CD28, 24 hours, vs no HMB, FIG. 1"}, "[7]": {"settings": "PBMC, CD3/CD28, 24 hours, vs no HMB, FIG. 2"}},
  "data": [
    {"smiles": "CC(C)(O)CC(=O)O", "note": "[HMB, β-hydroxy-β-methylbutyrate]", "values": [
      {"measurement": "signs of symptoms of asthma six months later", "setting": "asthma; person with family history, no signs at start, 250 mg HMB (Nutritional Liquid #4) once a day for 6 months", "value": "still shows no signs"},
      {"measurement": "FEV1 one year later", "setting": "asthma; person, mild intermittent asthma, baseline FEV1 83%, 1.5-6 g HMB (Nutritional Liquid #5) 4 times a week for a year", "value": "above 80%"},
      {"measurement": "symptoms of asthma one year later", "setting": "asthma; person, mild intermittent asthma, 1.5-6 g HMB (Nutritional Liquid #5) 4 times a week for a year", "value": "reduced"},
      {"measurement": "FEV1 one year later", "setting": "asthma; [3]", "value": "has not decreased"},
      {"measurement": "symptoms of asthma one year later", "setting": "asthma; [3]", "value": "reduced"},
      {"measurement": "asthma exacerbation frequency", "setting": "asthma; person, normally four exacerbations per year, 1-10 g HMB (Nutritional Liquid #5) four times a week for a year", "value": "decreases to once a year"},
      {"measurement": "symptoms of seasonal allergies the following spring", "setting": "seasonal allergies; individual, 0.25-1 g HMB (Nutritional Liquid #5) four times a week for a year", "value": "reduced"},
      {"measurement": "signs of seasonal allergies six months later", "setting": "seasonal allergies; person with family history, no signs at start, 0.1-1.5 g HMB (Nutritional Liquid #3) once a day for 6 months", "value": "still shows no signs"},
      {"measurement": "IL-2 production relative to IL-5 production", "setting": "[1]; [4]", "value": "increased"},
      {"measurement": "IL-2 production relative to IL-13 production", "setting": "[1]; [4]", "value": "increased"},
      {"measurement": "IL-2 production relative to IL-4 production", "setting": "[1]; 5 mM and 10 mM HMB, FIG. 3", "value": "Increases"},
      {"measurement": "IL-2 production relative to IL-10 production", "setting": "[1]; 5 mM and 10 mM HMB, FIG. 3", "value": "Increases"},
      {"measurement": "IL-12 production relative to IL-4", "setting": "[1]; 5 mM and 10 mM HMB, FIG. 4", "value": "Increases"},
      {"measurement": "IL-12 production relative to IL-5", "setting": "[1]; 5 mM and 10 mM HMB, FIG. 4", "value": "Increases"},
      {"measurement": "IL-12 production relative to IL-10", "setting": "[1]; 5 mM and 10 mM HMB, FIG. 4", "value": "Increases"},
      {"measurement": "IL-12 production relative to IL-13", "setting": "[1]; 5 mM and 10 mM HMB, FIG. 4", "value": "Increases"},
      {"measurement": "IFNγ production relative to IL-5", "setting": "[1]; 5 mM and 10 mM HMB, FIG. 5", "value": "increases"},
      {"measurement": "IL-2 production (type 1 cytokine)", "setting": "[1]; 5 mM and 10 mM HMB, PBMC of 10 healthy donors, CD3/CD28, 24 hours, vs no HMB, FIG. 1", "value": "Significant dose response increases"},
      {"measurement": "IFNγ production (type 1 cytokine)", "setting": "[1]; [5]", "value": "Significant dose response increases"},
      {"measurement": "IL-12 production (type 1 cytokine)", "setting": "[1]; [5]", "value": "Significant dose response increases"},
      {"measurement": "IFNγ production relative to IL-4", "setting": "[1]; 10 mM HMB, FIG. 5", "value": "Increases"},
      {"measurement": "IFNγ production relative to IL-10", "setting": "[1]; 10 mM HMB, FIG. 5", "value": "Increases"},
      {"measurement": "IL-10 production (type 2 cytokine)", "setting": "[1]; 10 mM HMB, PBMC, CD3/CD28, 24 hours, vs no HMB, FIG. 2", "value": "significant decrease"},
      {"measurement": "GC-CSF production", "setting": "[1]; [6]", "value": "does not significantly affect"},
      {"measurement": "TNFα production", "setting": "[1]; [6]", "value": "does not significantly affect"},
      {"measurement": "IL-4 production (type 2 cytokine)", "setting": "[1]; [7]", "value": "does not significantly affect"},
      {"measurement": "IL-5 production (type 2 cytokine)", "setting": "[1]; [7]", "value": "does not significantly affect"},
      {"measurement": "IL-13 production (type 2 cytokine)", "setting": "[1]; [7]", "value": "does not significantly affect"},
      {"measurement": "spread of kidney tumor six months later", "setting": "kidney tumors", "value": "has not spread"},
      {"measurement": "respiratory tract infections, including recurrence of pneumonia, during six months", "setting": "[2]", "value": "remains free of respiratory tract infections"},
      {"measurement": "return of ovarian cancer one year later", "setting": "ovarian cancer", "value": "has not returned"},
      {"measurement": "symptoms of surgical stress, two months later", "setting": "stress; 200 mg HMB (Nutritional Liquid #2) 7 times a week for 2 months", "value": "reduced"},
      {"measurement": "symptoms of pre-surgical stress at the end of 3 weeks", "setting": "stress; 200 mg HMB (capsules) once a day for 3 weeks before surgery", "value": "reduced"},
      {"measurement": "symptoms of psychological stress after burn injury, one year later", "setting": "stress; 500 mg HMB (Nutritional Liquid #1) 4 times a week for a year", "value": "reduced"},
      {"measurement": "spread of melanoma six months later", "setting": "melanoma", "value": "has not spread"}
    ]}
  ]
}
